From PubChem BioAssay AID1963875 (Molecular Pharmacology Branch, DTP, NCI, 2024)

Test system: KRAS-mutant PDC complex spheroid viability
Assay: Anticancer human tumor 186277-243-T-J2-PDC patient-derived colon adenocarcinoma cell line growth inhibition [KRAS2]
Settings: for IC50: curve of first compound; for viability, T/C: stronger effect = lower value; active = viability on the fitted dose curve at most 10% of control; inactive = the rest
Procedure, shortened: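 Combination screen of spheroid viability in tumor-cell co-cultures with endothelial (HUVEC) and mesenchymal stem cell stroma. Each agent was tested in half-log dilutions, topping at clinical Cmax or at 10 microM without a known Cmax.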

[1] = second compound 0.1 µM, first compound 0.000316 µM
[2] = second compound 0.1 µM, first compound 0.001 µM
[3] = second compound 0.1 µM, first compound 0.00316 µM
[4] = second compound 0.1 µM, first compound 0.01 µM
[5] = second compound 0.1 µM, first compound 0.0316 µM
[6] = second compound 0.316 µM, first compound 0.000316 µM
[7] = second compound 0.316 µM, first compound 0.001 µM
[8] = second compound 0.316 µM, first compound 0.00316 µM
[9] = second compound 0.316 µM, first compound 0.01 µM
[10] = second compound 0.316 µM, first compound 0.0316 µM
[11] = second compound 1 µM, first compound 0.000316 µM
[12] = second compound 1 µM, first compound 0.001 µM
[13] = second compound 1 µM, first compound 0.00316 µM
[14] = second compound 1 µM, first compound 0.01 µM
[15] = second compound 1 µM, first compound 0.0316 µM
[16] = second compound 3.16 µM, first compound 0.000316 µM
[17] = second compound 3.16 µM, first compound 0.001 µM
[18] = second compound 3.16 µM, first compound 0.00316 µM
[19] = second compound 3.16 µM, first compound 0.01 µM
[20] = second compound 3.16 µM, first compound 0.0316 µM
[21] = second compound 10 µM, first compound 0.000316 µM
[22] = second compound 10 µM, first compound 0.001 µM
[23] = second compound 10 µM, first compound 0.00316 µM
[24] = second compound 10 µM, first compound 0.01 µM
[25] = second compound 10 µM, first compound 0.0316 µM
[26] = second compound 0.1 µM, first compound 0.1 µM
[27] = second compound 0.316 µM, first compound 0.1 µM
[28] = second compound 1 µM, first compound 0.1 µM
[29] = second compound 3.16 µM, first compound 0.1 µM
[30] = second compound 10 µM, first compound 0.1 µM
[31] = second compound 0.1 µM, first compound 0.316 µM
[32] = second compound 0.1 µM, first compound 1 µM
[33] = second compound 0.1 µM, first compound 3.16 µM
[34] = second compound 0.1 µM, first compound 10 µM
[35] = second compound 0.316 µM, first compound 0.316 µM
[36] = second compound 0.316 µM, first compound 1 µM
[37] = second compound 0.316 µM, first compound 3.16 µM
[38] = second compound 0.316 µM, first compound 10 µM
[39] = second compound 1 µM, first compound 0.316 µM
[40] = second compound 1 µM, first compound 1 µM
[41] = second compound 1 µM, first compound 3.16 µM
[42] = second compound 1 µM, first compound 10 µM
[43] = second compound 3.16 µM, first compound 0.316 µM
[44] = second compound 3.16 µM, first compound 1 µM
[45] = second compound 3.16 µM, first compound 3.16 µM
[46] = second compound 3.16 µM, first compound 10 µM
[47] = second compound 10 µM, first compound 0.316 µM
[48] = second compound 10 µM, first compound 1 µM
[49] = second compound 10 µM, first compound 3.16 µM
[50] = second compound 10 µM, first compound 10 µM
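For viability, T/C in this document: viability read after seven days of compound exposure; 100% = DMSO vehicle-treated spheroids so lower means less viable.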

CC(=O)Nc1cccc(-n2c(=O)n(C3CC3)c(=O)c3c(Nc4ccc(I)cc4F)n(C)c(=O)c(C)c32)c1 + CC1OCC2(CCN(c3cnc(Sc4ccnc(N)c4Cl)c(N)n3)CC2)C1N
< 0.1 nM: IC50 (second compound 3.16 µM) | IC50 (second compound 10 µM)
active: viability, T/C [3] 5% | viability, T/C [4] 1.6% | viability, T/C [5] 1.06% | viability, T/C [7] 5.13% | viability, T/C [8] 3.78% | viability, T/C [9] 3.34% | viability, T/C [10] 0.76% | viability, T/C [12] 4.8% | viability, T/C [13] 1.82% | viability, T/C [14] 0.88% | viability, T/C [15] 0.76% | viability, T/C [16] 5.11% | viability, T/C [17] 2.57% | viability, T/C [18] 1.18% | viability, T/C [19] 0.59% | viability, T/C [20] 0.6% | viability, T/C (second compound 10 µM, first compound 0.0001 µM) 10% | viability, T/C [21] 3.24% | viability, T/C [22] 1.99% | viability, T/C [23] 0.72% | viability, T/C [24] 0.68% | viability, T/C [25] 0.55%
inactive: viability, T/C (second compound 0.1 µM, first compound 0.0001 µM) 116% | viability, T/C [1] 56.1% | viability, T/C [2] 9.68% | viability, T/C (second compound 0.316 µM, first compound 0.0001 µM) 86.3% | viability, T/C [6] 25.9% | viability, T/C (second compound 1 µM, first compound 0.0001 µM) 60.8% | viability, T/C [11] 10.9% | viability, T/C (second compound 3.16 µM, first compound 0.0001 µM) 24.4%
0.128 nM: IC50 (second compound 1 µM)
0.199 nM: IC50 (second compound 0.316 µM)
0.368 nM: IC50 (second compound 0.1 µM)

CC(C)n1nc(-c2ccc3oc(N)nc3c2)c2c(N)ncnc21 + CC1OCC2(CCN(c3cnc(Sc4ccnc(N)c4Cl)c(N)n3)CC2)C1N
active: viability, T/C [29] 7.43% | viability, T/C [30] 5.7%
11.9 nM: IC50 (second compound 0.1 µM)
4.98 nM: IC50 (second compound 3.16 µM)
12.7 nM: IC50 (second compound 0.316 µM)
inactive: viability, T/C [1] 107% | viability, T/C [2] 101% | viability, T/C [3] 85.8% | viability, T/C [4] 52.1% | viability, T/C [5] 30% | viability, T/C [26] 16.1% | viability, T/C [6] 113% | viability, T/C [7] 100% | viability, T/C [8] 76.8% | viability, T/C [9] 57% | viability, T/C [10] 30.6% | viability, T/C [27] 15.3% | viability, T/C [11] 103% | viability, T/C [12] 89.7% | viability, T/C [13] 67.5% | viability, T/C [14] 49.9% | viability, T/C [15] 25.3% | viability, T/C [28] 12.9% | viability, T/C [16] 83.8% | viability, T/C [17] 73.4% | viability, T/C [18] 55.9% | viability, T/C [19] 39.5% | viability, T/C [20] 22.6% | viability, T/C [21] 57.4% | viability, T/C [22] 58.8% | viability, T/C [23] 33.7% | viability, T/C [24] 25.3% | viability, T/C [25] 13.8%
8.7 nM: IC50 (second compound 1 µM)
1.26 nM: IC50 (second compound 10 µM)

COc1cc(Nc2ncc3c(n2)-c2ccc(Cl)cc2C(c2c(F)cccc2OC)=NC3)ccc1C(=O)O + CC1OCC2(CCN(c3cnc(Sc4ccnc(N)c4Cl)c(N)n3)CC2)C1N
< 31.6 nM: IC50 (second compound 0.1 µM) | IC50 (second compound 0.316 µM) | IC50 (second compound 1 µM) | IC50 (second compound 3.16 µM) | IC50 (second compound 10 µM)
inactive: viability, T/C [5] 36% | viability, T/C [26] 32.9% | viability, T/C [31] 33% | viability, T/C [32] 35.2% | viability, T/C [33] 38.8% | viability, T/C [34] 33.8% | viability, T/C [10] 30.3% | viability, T/C [27] 29.7% | viability, T/C [35] 24.5% | viability, T/C [36] 27.9% | viability, T/C [37] 30.4% | viability, T/C [38] 27.5% | viability, T/C [15] 22.2% | viability, T/C [28] 22.8% | viability, T/C [39] 21.1% | viability, T/C [40] 22.1% | viability, T/C [41] 22.6% | viability, T/C [42] 21.7% | viability, T/C [20] 17.1% | viability, T/C [29] 18% | viability, T/C [43] 15.8% | viability, T/C [44] 15.7% | viability, T/C [45] 16.1% | viability, T/C [46] 16.2% | viability, T/C [25] 13.7% | viability, T/C [30] 13.9% | viability, T/C [47] 11.8% | viability, T/C [48] 11.4% | viability, T/C [49] 12.1% | viability, T/C [50] 11.9%

COc1cc2nccc(Oc3ccc(NC(=O)C4(C(=O)Nc5ccc(F)cc5)CC4)cc3)c2cc1OC + CC1OCC2(CCN(c3cnc(Sc4ccnc(N)c4Cl)c(N)n3)CC2)C1N
2030 nM: IC50 (second compound 0.316 µM)
1980 nM: IC50 (second compound 0.1 µM)
821 nM: IC50 (second compound 3.16 µM)
inactive: viability, T/C [5] 106% | viability, T/C [26] 111% | viability, T/C [31] 105% | viability, T/C [32] 103% | viability, T/C [33] 13.7% | viability, T/C [10] 115% | viability, T/C [27] 98.8% | viability, T/C [35] 109% | viability, T/C [36] 107% | viability, T/C [37] 14.6% | viability, T/C [15] 104% | viability, T/C [28] 112% | viability, T/C [39] 104% | viability, T/C [40] 85.2% | viability, T/C [20] 94% | viability, T/C [29] 92.8% | viability, T/C [43] 83.7% | viability, T/C [44] 43.6% | viability, T/C [25] 63.5% | viability, T/C [30] 60.7% | viability, T/C [47] 48.5% | viability, T/C [48] 21.8%
1710 nM: IC50 (second compound 1 µM)
284 nM: IC50 (second compound 10 µM)
active: viability, T/C [34] 8.67% | viability, T/C [38] 9.03% | viability, T/C [41] 9.37% | viability, T/C [42] 6.62% | viability, T/C [45] 5.99% | viability, T/C [46] 4.64% | viability, T/C [49] 3.73% | viability, T/C [50] 3.26%
